Results as given in paper PMC9898036, “VIP152 is a selective CDK9 inhibitor with pre-clinical in vitro and in vivo efficacy in chronic lymphocytic leukemia” (Leukemia, 2022).
Read-outs that look alike come from different tables or passages of the source.

Experiments:
Assay in all cases: DiscoverX KINOMEscan kinase profiling (468 assays)
Format in all cases: binding
human kinome [1] = target: human kinome (Homo sapiens, UniProt O14965); conditions: AURKA; 100 nM; read-out: Percent Control
Summary of the method: (§1)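 VIP152 was run in DMSO, alongside a DMSO control. Readout was qPCR of DNA-tagged kinase still bound to bead-immobilized biotinylated kinase ligands after compound competition.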

human kinome [2] = target: human kinome (Homo sapiens, UniProt O60674); conditions: JAK2(JH1domain-catalytic); 100 nM; read-out: Percent Control
Summary of the method: as §1

human kinome [3] = target: human kinome (Homo sapiens, UniProt O75116); conditions: kinase ROCK2 (Entrez ROCK2); compound concentration 1000 nM; read-out: Percent Control
Summary of the method: as §1

human kinome [4] = target: human kinome (Homo sapiens, UniProt O94768); conditions: DRAK2 (Entrez STK17B); 100 nM; read-out: Percent Control
Summary of the method: as §1

human kinome [5] = target: human kinome (Homo sapiens, UniProt O95819); conditions: MAP4K4; 100 nM; read-out: Percent Control
Summary of the method: as §1

human kinome [6] = target: human kinome (Homo sapiens, UniProt P07949, M918T); conditions: kinase RET(M918T) (Entrez RET); compound concentration 1000 nM; read-out: Percent Control
Summary of the method: as §1

human kinome [7] = target: human kinome (Homo sapiens, UniProt P08631); conditions: HCK; 100 nM; read-out: Percent Control
Summary of the method: as §1

human kinome [8] = target: human kinome (Homo sapiens, UniProt P10721, A829P); conditions: KIT(A829P); 100 nM; read-out: Percent Control
Summary of the method: as §1

human kinome [9] = target: human kinome (Homo sapiens, UniProt P24723); conditions: read-out: Percent Control
Sequence of human kinome (Homo sapiens, UniProt P24723) (P24723 whole entry): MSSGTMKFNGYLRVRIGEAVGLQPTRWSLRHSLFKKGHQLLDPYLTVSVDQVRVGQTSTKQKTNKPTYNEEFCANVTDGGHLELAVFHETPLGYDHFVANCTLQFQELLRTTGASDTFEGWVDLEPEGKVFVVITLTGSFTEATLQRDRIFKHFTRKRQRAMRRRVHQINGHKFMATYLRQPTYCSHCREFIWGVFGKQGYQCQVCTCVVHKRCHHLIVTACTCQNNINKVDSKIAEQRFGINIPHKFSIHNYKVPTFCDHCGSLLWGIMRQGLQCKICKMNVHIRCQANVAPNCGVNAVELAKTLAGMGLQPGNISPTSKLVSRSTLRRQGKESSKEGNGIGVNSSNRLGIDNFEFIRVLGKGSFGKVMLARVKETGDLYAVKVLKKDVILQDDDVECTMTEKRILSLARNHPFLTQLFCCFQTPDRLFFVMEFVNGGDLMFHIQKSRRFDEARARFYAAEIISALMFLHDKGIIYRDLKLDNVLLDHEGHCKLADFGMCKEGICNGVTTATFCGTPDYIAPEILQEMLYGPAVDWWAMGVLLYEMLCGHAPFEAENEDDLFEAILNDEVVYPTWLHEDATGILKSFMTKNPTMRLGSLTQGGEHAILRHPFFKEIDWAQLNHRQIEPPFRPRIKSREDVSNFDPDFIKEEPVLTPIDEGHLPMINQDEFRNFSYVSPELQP
Summary of the method: as §1

human kinome [10] = target: human kinome (Homo sapiens, UniProt P30291); conditions: kinase WEE1 (Entrez WEE1); compound concentration 1000 nM; read-out: Percent Control
Summary of the method: as §1

human kinome [11] = target: human kinome (Homo sapiens, UniProt P31751); conditions: AKT2; 100 nM; read-out: Percent Control
Summary of the method: as §1

human kinome [12] = target: human kinome (Homo sapiens, UniProt P33981); conditions: kinase TTK (Entrez TTK); compound concentration 1000 nM; read-out: Percent Control
Summary of the method: as §1

human kinome [13] = target: human kinome (Homo sapiens, UniProt P42684); conditions: ABL2; 100 nM; read-out: Percent Control
Summary of the method: as §1

human kinome [14] = target: human kinome (Homo sapiens, UniProt P48736); conditions: read-out: Percent Control
Sequence of human kinome (Homo sapiens, UniProt P48736) (P48736 whole entry): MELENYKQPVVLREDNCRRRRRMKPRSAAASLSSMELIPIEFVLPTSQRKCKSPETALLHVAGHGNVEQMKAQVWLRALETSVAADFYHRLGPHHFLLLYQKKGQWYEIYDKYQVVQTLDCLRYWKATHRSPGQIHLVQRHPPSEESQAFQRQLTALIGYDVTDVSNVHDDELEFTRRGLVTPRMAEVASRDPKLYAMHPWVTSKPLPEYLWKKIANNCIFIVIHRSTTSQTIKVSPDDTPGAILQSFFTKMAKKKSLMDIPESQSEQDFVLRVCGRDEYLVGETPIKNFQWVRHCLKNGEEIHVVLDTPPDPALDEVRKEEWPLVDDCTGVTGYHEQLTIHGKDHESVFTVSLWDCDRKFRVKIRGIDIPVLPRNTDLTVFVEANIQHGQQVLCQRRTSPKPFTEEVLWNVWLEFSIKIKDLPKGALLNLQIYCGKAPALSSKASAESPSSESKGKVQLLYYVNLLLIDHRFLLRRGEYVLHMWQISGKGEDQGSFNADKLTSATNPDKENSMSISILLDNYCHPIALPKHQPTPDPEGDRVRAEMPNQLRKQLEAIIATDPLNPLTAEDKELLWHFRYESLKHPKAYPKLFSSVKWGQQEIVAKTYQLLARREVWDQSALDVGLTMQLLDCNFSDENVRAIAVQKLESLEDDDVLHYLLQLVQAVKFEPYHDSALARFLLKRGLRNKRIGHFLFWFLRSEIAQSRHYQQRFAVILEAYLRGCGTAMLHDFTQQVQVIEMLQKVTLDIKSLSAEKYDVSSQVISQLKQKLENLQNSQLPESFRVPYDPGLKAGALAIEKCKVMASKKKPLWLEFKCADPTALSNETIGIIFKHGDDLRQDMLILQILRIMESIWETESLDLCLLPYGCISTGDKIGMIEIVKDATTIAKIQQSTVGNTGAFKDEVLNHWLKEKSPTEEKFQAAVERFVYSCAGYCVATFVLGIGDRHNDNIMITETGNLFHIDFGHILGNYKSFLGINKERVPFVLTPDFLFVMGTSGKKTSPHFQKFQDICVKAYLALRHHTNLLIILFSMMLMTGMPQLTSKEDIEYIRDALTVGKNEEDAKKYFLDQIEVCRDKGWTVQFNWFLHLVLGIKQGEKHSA
Summary of the method: as §1

human kinome [15] = target: human kinome (Homo sapiens, UniProt P51812); conditions: compound concentration 1000 nM, read-out: Percent Control
Summary of the method: as §1

human kinome [16] = target: human kinome (Homo sapiens, UniProt P51955); conditions: read-out: Percent Control
Summary of the method: as §1

human kinome [17] = target: human kinome (Homo sapiens, UniProt P52333); conditions: JAK3(JH1domain-catalytic); 100 nM; read-out: Percent Control
Summary of the method: as §1

human kinome [18] = target: human kinome (Homo sapiens, UniProt P54760); conditions: EPHB4; 100 nM; read-out: Percent Control
Summary of the method: as §1

human kinome [19] = target: human kinome (Homo sapiens, UniProt Q00535); conditions: CDK5; 100 nM; read-out: Percent Control
Summary of the method: as §1

human kinome [20] = target: human kinome (Homo sapiens, UniProt Q05397); conditions: FAK (Entrez PTK2); 100 nM; read-out: Percent Control
Summary of the method: as §1

human kinome [21] = target: human kinome (Homo sapiens, UniProt Q13233); conditions: MAP3K1; 100 nM; read-out: Percent Control
Summary of the method: as §1

human kinome [22] = target: human kinome (Homo sapiens, UniProt Q15139); conditions: read-out: Percent Control
Sequence of human kinome (Homo sapiens, UniProt Q15139) (Q15139 whole entry): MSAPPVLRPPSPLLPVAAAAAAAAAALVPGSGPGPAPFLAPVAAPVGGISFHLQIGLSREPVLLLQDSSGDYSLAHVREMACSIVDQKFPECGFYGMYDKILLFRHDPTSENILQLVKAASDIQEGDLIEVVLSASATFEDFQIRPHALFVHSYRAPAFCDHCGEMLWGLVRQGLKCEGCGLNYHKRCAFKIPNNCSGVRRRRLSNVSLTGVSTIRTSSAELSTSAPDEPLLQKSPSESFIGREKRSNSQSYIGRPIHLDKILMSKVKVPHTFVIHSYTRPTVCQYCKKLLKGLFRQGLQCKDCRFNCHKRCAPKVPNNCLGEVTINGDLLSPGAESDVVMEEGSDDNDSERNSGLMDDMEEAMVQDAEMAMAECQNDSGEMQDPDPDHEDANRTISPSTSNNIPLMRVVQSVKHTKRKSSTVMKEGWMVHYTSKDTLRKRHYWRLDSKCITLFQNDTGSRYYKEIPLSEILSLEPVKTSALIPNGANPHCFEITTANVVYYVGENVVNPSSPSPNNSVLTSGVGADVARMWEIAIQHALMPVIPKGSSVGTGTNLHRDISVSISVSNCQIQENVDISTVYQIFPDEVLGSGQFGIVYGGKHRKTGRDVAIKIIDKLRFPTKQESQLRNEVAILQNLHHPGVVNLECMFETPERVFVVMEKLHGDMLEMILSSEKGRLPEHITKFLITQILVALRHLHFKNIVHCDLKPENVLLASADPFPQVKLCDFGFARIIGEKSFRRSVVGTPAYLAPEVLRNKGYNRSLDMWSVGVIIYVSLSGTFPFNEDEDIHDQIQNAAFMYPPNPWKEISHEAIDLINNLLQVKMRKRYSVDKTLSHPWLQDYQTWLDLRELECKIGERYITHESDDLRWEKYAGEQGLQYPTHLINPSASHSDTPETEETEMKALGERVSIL
Summary of the method: as §1

human kinome [23] = target: human kinome (Homo sapiens, UniProt Q8IVH8); conditions: MAP4K3; 100 nM; read-out: Percent Control
Summary of the method: as §1

human kinome [24] = target: human kinome (Homo sapiens, UniProt Q8IWQ3); conditions: BRSK2; 100 nM; read-out: Percent Control
Summary of the method: as §1

human kinome [25] = target: human kinome (Homo sapiens, UniProt Q8N752); conditions: CSNK1A1L; 100 nM; read-out: Percent Control
Summary of the method: as §1

human kinome [26] = target: human kinome (Homo sapiens, UniProt Q8NG66); conditions: read-out: Percent Control
Sequence of human kinome (Homo sapiens, UniProt Q8NG66) (Q8NG66 whole entry): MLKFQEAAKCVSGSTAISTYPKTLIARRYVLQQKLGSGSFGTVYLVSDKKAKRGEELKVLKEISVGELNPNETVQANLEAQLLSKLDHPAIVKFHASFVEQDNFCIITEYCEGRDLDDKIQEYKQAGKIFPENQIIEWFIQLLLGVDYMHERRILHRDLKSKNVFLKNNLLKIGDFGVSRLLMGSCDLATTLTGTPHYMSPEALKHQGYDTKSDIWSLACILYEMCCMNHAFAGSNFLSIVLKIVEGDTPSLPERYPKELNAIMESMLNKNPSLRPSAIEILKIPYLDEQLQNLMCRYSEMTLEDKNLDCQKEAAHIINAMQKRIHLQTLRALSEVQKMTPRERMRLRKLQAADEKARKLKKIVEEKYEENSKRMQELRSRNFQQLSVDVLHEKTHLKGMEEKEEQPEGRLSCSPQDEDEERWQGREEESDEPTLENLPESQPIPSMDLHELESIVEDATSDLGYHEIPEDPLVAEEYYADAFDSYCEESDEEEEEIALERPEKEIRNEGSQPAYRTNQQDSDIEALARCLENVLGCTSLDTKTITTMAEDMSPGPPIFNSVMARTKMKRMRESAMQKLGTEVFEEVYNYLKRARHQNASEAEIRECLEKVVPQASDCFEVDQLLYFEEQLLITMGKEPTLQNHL
Summary of the method: as §1

human kinome [27] = target: human kinome (Homo sapiens, UniProt Q8TBX8); conditions: read-out: Percent Control
Sequence of human kinome (Homo sapiens, UniProt Q8TBX8) (Q8TBX8 whole entry): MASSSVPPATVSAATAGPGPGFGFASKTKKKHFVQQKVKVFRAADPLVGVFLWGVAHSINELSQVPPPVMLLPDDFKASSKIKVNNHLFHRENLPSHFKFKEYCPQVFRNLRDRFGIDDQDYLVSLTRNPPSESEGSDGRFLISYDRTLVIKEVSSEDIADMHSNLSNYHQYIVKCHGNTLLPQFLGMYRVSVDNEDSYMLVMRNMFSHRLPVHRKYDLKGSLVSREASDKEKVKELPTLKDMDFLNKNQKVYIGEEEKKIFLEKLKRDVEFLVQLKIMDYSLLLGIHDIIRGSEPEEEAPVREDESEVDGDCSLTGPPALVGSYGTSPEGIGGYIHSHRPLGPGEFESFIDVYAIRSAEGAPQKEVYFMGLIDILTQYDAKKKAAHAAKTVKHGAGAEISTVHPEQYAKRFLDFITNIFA
Summary of the method: as §1

human kinome [28] = target: human kinome (Homo sapiens, UniProt Q8TDC3); conditions: BRSK1; 100 nM; read-out: Percent Control
Summary of the method: as §1

human kinome [29] = target: human kinome (Homo sapiens, UniProt Q96PY6); conditions: read-out: Percent Control
Sequence of human kinome (Homo sapiens, UniProt Q96PY6) (Q96PY6 whole entry): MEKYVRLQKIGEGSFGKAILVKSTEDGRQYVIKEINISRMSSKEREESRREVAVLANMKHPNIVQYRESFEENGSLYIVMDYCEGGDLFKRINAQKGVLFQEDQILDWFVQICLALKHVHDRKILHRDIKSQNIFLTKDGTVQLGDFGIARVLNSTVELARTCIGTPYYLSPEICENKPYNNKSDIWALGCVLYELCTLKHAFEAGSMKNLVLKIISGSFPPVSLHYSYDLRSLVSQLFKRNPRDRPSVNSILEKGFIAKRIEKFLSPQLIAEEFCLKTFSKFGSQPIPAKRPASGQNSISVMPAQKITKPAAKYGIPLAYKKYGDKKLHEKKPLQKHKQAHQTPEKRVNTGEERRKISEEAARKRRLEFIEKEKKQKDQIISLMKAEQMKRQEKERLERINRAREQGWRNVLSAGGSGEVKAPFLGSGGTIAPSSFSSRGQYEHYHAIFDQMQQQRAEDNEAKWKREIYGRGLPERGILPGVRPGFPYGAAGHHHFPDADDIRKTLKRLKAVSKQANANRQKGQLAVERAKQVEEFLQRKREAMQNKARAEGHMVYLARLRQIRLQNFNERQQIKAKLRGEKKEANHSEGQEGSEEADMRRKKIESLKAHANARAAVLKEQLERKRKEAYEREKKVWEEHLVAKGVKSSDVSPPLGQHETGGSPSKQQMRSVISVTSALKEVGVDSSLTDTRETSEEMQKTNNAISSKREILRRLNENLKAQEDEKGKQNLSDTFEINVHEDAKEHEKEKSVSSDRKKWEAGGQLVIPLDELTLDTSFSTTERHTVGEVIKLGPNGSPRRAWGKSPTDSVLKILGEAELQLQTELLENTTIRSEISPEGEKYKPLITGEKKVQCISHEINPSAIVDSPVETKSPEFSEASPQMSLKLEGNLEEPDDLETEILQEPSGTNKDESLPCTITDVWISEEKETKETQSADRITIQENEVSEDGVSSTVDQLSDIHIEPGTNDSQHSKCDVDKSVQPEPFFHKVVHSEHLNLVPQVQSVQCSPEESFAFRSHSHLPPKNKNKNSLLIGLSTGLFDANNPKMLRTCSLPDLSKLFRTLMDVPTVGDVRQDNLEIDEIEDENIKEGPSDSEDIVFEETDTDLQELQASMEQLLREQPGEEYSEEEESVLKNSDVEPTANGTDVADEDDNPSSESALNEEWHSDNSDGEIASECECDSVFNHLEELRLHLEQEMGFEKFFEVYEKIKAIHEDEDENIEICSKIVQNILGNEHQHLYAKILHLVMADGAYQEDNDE
Summary of the method: as §1

human kinome [30] = target: human kinome (Homo sapiens, UniProt Q9NY57); conditions: kinase YANK2 (Entrez STK32B); compound concentration 1000 nM; read-out: Percent Control
Summary of the method: as §1

COc1cc(F)ccc1-c1cc(Nc2cc(CS(C)(=N)=O)ccn2)ncc1F (centres unmarked) [VIP152]
remaining binding at 0.1 µM (human kinome [1]): 100% | remaining binding at 0.1 µM (human kinome [2]): 100% | remaining binding at 1 µM (human kinome [3]): 87% | remaining binding at 0.1 µM (human kinome [4]): 100% | remaining binding at 0.1 µM (human kinome [5]): 73% | remaining binding at 1 µM (human kinome [6]): 73% | remaining binding at 0.1 µM (human kinome [7]): 97% | remaining binding at 0.1 µM (human kinome [8]): 100% | remaining binding at 0.1 µM (human kinome [9]; PRKCH, 100 nM): 100% | remaining binding at 1 µM (human kinome [9]; kinase PRKCH (Entrez PRKCH), compound concentration 1000 nM): 94% | remaining binding at 1 µM (human kinome [10]): 86% | remaining binding at 0.1 µM (human kinome [11]): 100% | remaining binding at 1 µM (human kinome [12]): 68% | remaining binding at 0.1 µM (human kinome [13]): 100% | remaining binding at 0.1 µM (human kinome [14]; PIK3CG, 100 nM): 100% | remaining binding at 1 µM (human kinome [14]; kinase PIK3CG (Entrez PIK3CG), compound concentration 1000 nM): 97% | remaining binding at 1 µM (human kinome [15]; kinase RSK2(Kin.Dom.1-N-terminal) (Entrez RPS6KA3)): 60% | remaining binding at 1 µM (human kinome [15]; kinase RSK2(Kin.Dom.2-C-terminal) (Entrez RPS6KA3)): 80% | remaining binding at 0.1 µM (human kinome [16]; NEK2, 100 nM): 100% | remaining binding at 1 µM (human kinome [16]; kinase NEK2 (Entrez NEK2), compound concentration 1000 nM): 84% | remaining binding at 0.1 µM (human kinome [17]): 100% | remaining binding at 0.1 µM (human kinome [18]): 100% | remaining binding at 0.1 µM (human kinome [19]): 100% | remaining binding at 0.1 µM (human kinome [20]): 100% | remaining binding at 0.1 µM (human kinome [21]): 100% | remaining binding at 0.1 µM (human kinome [22]; PRKD1, 100 nM): 71% | remaining binding at 1 µM (human kinome [22]; kinase PRKD1 (Entrez PRKD1), compound concentration 1000 nM): 100% | remaining binding at 0.1 µM (human kinome [23]): 100% | remaining binding at 0.1 µM (human kinome [24]): 99% | remaining binding at 0.1 µM (human kinome [25]): 100% | remaining binding at 0.1 µM (human kinome [26]; NEK11, 100 nM): 100% | remaining binding at 1 µM (human kinome [26]; kinase NEK11 (Entrez NEK11), compound concentration 1000 nM): 74% | remaining binding at 0.1 µM (human kinome [27]; PIP5K2C (Entrez PIP4K2C), 100 nM): 52% | remaining binding at 1 µM (human kinome [27]; kinase PIP5K2C (Entrez PIP4K2C), compound concentration 1000 nM): 82% | remaining binding at 0.1 µM (human kinome [28]): 100% | remaining binding at 0.1 µM (human kinome [29]; NEK1, 100 nM): 100% | remaining binding at 1 µM (human kinome [29]; kinase NEK1 (Entrez NEK1), compound concentration 1000 nM): 99% | remaining binding at 1 µM (human kinome [30]): 98%
